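Tested at 5 concentrations; 48 h exposure; 96-well plates; endpoints linearly interpolated, else capped at highest concentration. Abbreviation: GI50, concentration required for 50% inhibition of growth.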 Activity calls are given as the source filed them. No stated cut-off is given here; in the data, active = GI50 up to about 1.1 µM and inactive = higher.
Experiments:
Test in all cases: NCI anticancer screen, dose series, 48 h
EKVX = tested on: EKVX
HOP-62 = tested on: HOP-62
HT-29 = tested on: HT-29
K562 = tested on: K562
M14 = tested on: M14
MOLT-4 = tested on: MOLT-4
NCI-H460 = tested on: NCI-H460
NCI/ADR-RES = tested on: NCI/ADR-RES
OVCAR-4 = tested on: OVCAR-4
OVCAR-5 = tested on: OVCAR-5
OVCAR-8 = tested on: OVCAR-8
SF-295 = tested on: SF-295
SF-539 = tested on: SF-539
SK-MEL-5 = tested on: SK-MEL-5
SN12C = tested on: SN12C
SR = tested on: SR
HOP-92 = tested on: HOP-92
SK-MEL-2 = tested on: SK-MEL-2
T47D = tested on: T47D

Measured: GI50

O=[N+]([O-])c1ccc(/C=C/c2cc(-c3ccccc3)nc3ccc4ccccc4c23)cc1
inactive: EKVX > 100 µM | HOP-62 > 100 µM | HT-29 > 100 µM | K562 > 100 µM | M14 > 100 µM | MOLT-4 > 100 µM | NCI-H460 > 100 µM | NCI/ADR-RES > 100 µM | OVCAR-4 > 100 µM | OVCAR-5 > 100 µM | OVCAR-8 > 100 µM | SF-295 > 100 µM | SF-539 > 100 µM | SK-MEL-5 > 100 µM | SN12C > 100 µM | SR > 100 µM

CC(Oc1ccc2c(-c3ccc(Cl)cc3)cc(=O)oc2c1)C(=O)O (stereo not drawn)
inactive: EKVX > 100 µM | HOP-62 > 100 µM | HOP-92 > 100 µM | HT-29 > 100 µM | K562 > 100 µM | M14 > 100 µM | MOLT-4 > 100 µM | NCI-H460 > 100 µM | OVCAR-4 > 100 µM | OVCAR-8 > 100 µM | SF-295 > 100 µM | SF-539 > 100 µM | SK-MEL-5 > 100 µM | SN12C > 100 µM | SR > 100 µM

O=C1CN(c2cccc(Cl)c2)C(=O)CN1NCNN1CC(=O)N(c2cccc(Cl)c2)CC1=O
inactive: EKVX > 100 µM | HOP-62 > 100 µM | HOP-92 > 100 µM | HT-29 > 100 µM | M14 > 100 µM | MOLT-4 > 100 µM | NCI-H460 > 100 µM | OVCAR-4 > 100 µM | OVCAR-5 > 100 µM | OVCAR-8 > 100 µM | SF-295 > 100 µM | SF-539 > 100 µM | SK-MEL-5 > 100 µM | SN12C > 100 µM | SR > 100 µM

COc1cc(/C=C2\N=C(c3ccccc3)N(c3nc4ccc(Sc5ccccc5)cc4[nH]3)C2=O)ccc1O
inactive: EKVX 31.5 µM | HOP-62 42.7 µM | HOP-92 62.2 µM | HT-29 18.4 µM | K562 11.7 µM | M14 15.6 µM | MOLT-4 26.1 µM | NCI-H460 19.5 µM | NCI/ADR-RES 18.7 µM | OVCAR-4 30.1 µM | OVCAR-5 26.1 µM | OVCAR-8 27.6 µM | SF-295 27.9 µM | SK-MEL-2 13.5 µM | SK-MEL-5 14.7 µM | SN12C 26.9 µM | T47D 27 µM

COc1ccc2ccc3c(c2c1)CN1CCc2cc(OC)c(OC)cc2C1C3 (stereo not drawn)
inactive: EKVX > 100 µM | HOP-62 > 100 µM | HOP-92 > 100 µM | HT-29 > 100 µM | K562 > 100 µM | M14 > 100 µM | MOLT-4 > 100 µM | NCI-H460 > 100 µM | OVCAR-4 > 100 µM | OVCAR-5 > 100 µM | OVCAR-8 > 100 µM | SF-295 > 100 µM | SF-539 > 100 µM | SK-MEL-2 > 100 µM | SK-MEL-5 > 100 µM | SN12C > 100 µM | SR > 100 µM

NC1=NN(c2ccccc2)C2(c3ccncc3C(=O)O)C1C(N)=NN2c1ccccc1 (stereo not drawn)
inactive: EKVX > 100 µM | HOP-92 > 100 µM | HT-29 > 100 µM | K562 > 100 µM | M14 > 100 µM | MOLT-4 > 100 µM | NCI-H460 > 100 µM | NCI/ADR-RES > 100 µM | OVCAR-4 > 100 µM | OVCAR-5 > 100 µM | OVCAR-8 > 100 µM | SF-295 > 100 µM | SF-539 > 100 µM | SK-MEL-2 > 100 µM | SK-MEL-5 > 100 µM | SN12C > 100 µM | T47D > 100 µM

OCC1OC(Oc2cc(O)cc(/C=C\c3ccc(O)cc3)c2)C(O)C(O)C1O (stereo not drawn)
inactive: EKVX > 100 µM | HOP-62 > 100 µM | HOP-92 > 100 µM | HT-29 > 100 µM | K562 > 100 µM | MOLT-4 > 100 µM | NCI-H460 > 100 µM | NCI/ADR-RES > 100 µM | OVCAR-4 > 100 µM | OVCAR-5 > 100 µM | OVCAR-8 > 100 µM | SF-295 > 100 µM | SF-539 > 100 µM | SK-MEL-2 > 100 µM | SK-MEL-5 > 100 µM | SN12C > 100 µM | SR > 100 µM

CC(=O)c1nc2ccccc2n1C(C)C(=O)c1ccccc1 (stereo not drawn)
inactive: EKVX > 100 µM | HOP-62 57.1 µM | HOP-92 69.3 µM | HT-29 > 100 µM | K562 36.5 µM | M14 42.8 µM | MOLT-4 34.9 µM | NCI-H460 33 µM | NCI/ADR-RES 46 µM | OVCAR-4 47.4 µM | OVCAR-8 23.1 µM | SF-295 54.6 µM | SF-539 > 100 µM | SN12C 56.6 µM | SR 36.3 µM

Nn1c(CCCCCCCCc2nnc(COc3ccc4ccccc4c3O)n2N)nnc1COc1ccc2ccccc2c1O
inactive: EKVX 43.7 µM | HOP-92 17.3 µM | HT-29 25.3 µM | K562 41.7 µM | M14 30.1 µM | MOLT-4 14.9 µM | NCI-H460 29 µM | NCI/ADR-RES 17.5 µM | OVCAR-4 34.1 µM | OVCAR-5 14.2 µM | SF-295 28.6 µM | SK-MEL-2 32.1 µM | SK-MEL-5 20.1 µM | SN12C 39.3 µM

Source: ChEMBL document CHEMBL1201862, “PubChem BioAssay data set” (2004)
